According to patent EP1388586A2, “Identification of broadly reactive DR restricted epitopes” (priority 1998, dated 1999):
Where two headings read alike, the source gives them in different places. Ends that are not written are not given here.

Target: T1, DRB1*0301 (DR3w17) (Homo sapiens, UniProt P01903+P01911, A100K/A102G/A103R/A169T/F55Y/I96L/K41T/L162R/M171V/P40S/Q125H/Q178H/Q39Y/R42S/S66N/T106N/T262R/W38E/Y61H)
T1 construct: used as sources of human HLA class II molecules; endogenous in cells; host or cells: MAT (EBV-transformed homozygous B cell line)
Assay: Class II peptide-binding assay, DR3 (pH 4.5);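 further: unlabeled peptide competing with a radiolabeled probe peptide for binding to affinity-purified HLA-DR3, IC50 regarded as an approximation of Kd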
Conditions: Table VIII

[1] = read-out: In IC50 Format DR3 nM, values in parentheses read as lower bounds
[2] = page 2, pH 4.5, read-out: In IC50 Format DR3

T1 sequence (P01903 26-254, other chains not shown): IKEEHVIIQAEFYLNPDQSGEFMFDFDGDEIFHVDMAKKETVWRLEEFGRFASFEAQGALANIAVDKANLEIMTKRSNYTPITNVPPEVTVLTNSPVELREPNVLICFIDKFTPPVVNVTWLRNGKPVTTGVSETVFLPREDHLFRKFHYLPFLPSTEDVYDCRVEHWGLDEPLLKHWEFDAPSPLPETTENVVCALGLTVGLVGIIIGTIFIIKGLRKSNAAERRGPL

Row | IC50 [1] | Molecule | other results
1 | > 111 µM | NQEVTAEDGTQRCEK [Peptide 39.0347] | –
2 | > 120 µM | TVPLPSETDGYVAPL [Peptide 39.0380] | –
3 | – | CC[C@H](C)[C@H](NC(=O)[C@H](CC(N)=O)NC(=O)[C@@H](N)CCC(N)=O)C(=O)N[C@H](C(=O)N[C@@H](CCC(N)=O)C(=O)N[C@@H](CC(N)=O)C(=O)N[C@@H](CC(=O)O)C(=O)N[C@H](C(=O)NCC(=O)N[C@@H](Cc1ccccc1)C(=O)N[C@@H](Cc1ccc(O)cc1)C(=O)N[C@H](C(=O)N[C@@H](CC(C)C)C(=O)N[C@@H](Cc1c[nH]cn1)C(=O)N[C@H](C(=O)O)C(C)C)[C@@H](C)O)[C@@H](C)O)[C@@H](C)CC [Peptide 39.0313] | IC50 [2]: 0.938 µM
4 | > 111 µM | CC(C)C[C@H](NC(=O)[C@@H]1CCCN1C(=O)CNC(=O)[C@@H](N)CCCCN)C(=O)N1CCC[C@H]1C(=O)N[C@H](C(=O)N[C@@H](CC(=O)O)C(=O)N[C@@H](CS)C(=O)N[C@@H](CS)C(=O)N[C@@H](Cc1c[nH]cn1)C(=O)N[C@@H](CCC(=O)O)C(=O)N[C@@H](CCC(N)=O)C(=O)N[C@@H](CS)C(=O)N[C@@H](C)C(=O)N[C@@H](C)C(=O)O)[C@@H](C)O [Peptide 39.0344] | –
5 | > 111 µM | DTILWKDIFHKNNQL [Peptide 39.0342] | –
6 | > 120 µM | FVVIQNEDLGPASPL [Peptide 39.0372] | –
7 | – | CC[C@H](C)[C@H](NC(=O)[C@H](CC(=O)O)NC(=O)[C@H](CC(=O)O)NC(=O)[C@@H]1CCCN1C(=O)[C@H](CO)NC(=O)[C@H](CC(C)C)NC(=O)[C@H](CCSC)NC(=O)[C@H](CC(C)C)NC(=O)[C@@H](N)CC(=O)O)C(=O)N[C@@H](CCC(=O)O)C(=O)N[C@@H](CCC(N)=O)C(=O)N[C@@H](Cc1c[nH]c2ccccc12)C(=O)N[C@@H](Cc1ccccc1)C(=O)N[C@H](C(=O)N[C@@H](CCC(=O)O)C(=O)O)[C@@H](C)O [Peptide 39.0411] | IC50 (read-out: In IC50 Format DR3): 20 µM
8 | – | CC[C@H](C)[C@H](NC(=O)[C@@H](NC(=O)[C@H](Cc1c[nH]cn1)NC(=O)[C@@H](N)CC(C)C)C(C)C)C(=O)N[C@@H](CCCCN)C(=O)N[C@@H](CO)C(=O)N[C@@H](CC(=O)O)C(=O)N[C@@H](CC(C)C)C(=O)N[C@H](C(=O)N[C@@H](CC(N)=O)C(=O)N[C@@H](CCC(=O)O)C(=O)N[C@@H](CCC(=O)O)C(=O)N[C@@H](C)C(=O)N[C@H](C(=O)NCC(=O)O)[C@@H](C)O)C(C)C [Peptide 39.0314] | IC50 [2]: 2.31 µM
9 | > 111 µM | LVTYNTDTFESMPNP [Peptide 39.0345] | –
10 | > 111 µM | CSCC[C@H](NC(=O)[C@H](CC(=O)O)NC(=O)[C@H](CC(C)C)NC(=O)[C@H](Cc1c[nH]cn1)NC(=O)[C@@H](NC(=O)[C@H](CCC(=O)O)NC(=O)[C@@H]1CCCN1C(=O)[C@H](CO)NC(=O)[C@H](C)NC(=O)[C@@H]1CCCN1C(=O)[C@H](CC(C)C)NC(=O)[C@@H](N)CCCNC(=N)N)[C@@H](C)O)C(=O)N[C@@H](CC(C)C)C(=O)N[C@@H](CCCNC(=N)N)C(=O)N[C@@H](Cc1c[nH]cn1)C(=O)O [Peptide 39.0338] | –
11 | > 120 µM | DLTLGLEPSEEEAPR [Peptide 39.0377] | –
12 | > 120 µM | C[C@H](NC(=O)CNC(=O)CNC(=O)[C@@H](N)CCC(N)=O)C(=O)N[C@@H](C)C(=O)N1CCC[C@H]1C(=O)N[C@@H](CCC(N)=O)C(=O)N1CCC[C@H]1C(=O)N[C@@H](Cc1c[nH]cn1)C(=O)N1CCC[C@H]1C(=O)N1CCC[C@H]1C(=O)N1CCC[C@H]1C(=O)N[C@@H](C)C(=O)N[C@@H](Cc1ccccc1)C(=O)N[C@@H](CO)C(=O)O [Peptide 39.0382] | –
